Experiments:
velvetleaf = experiment: Test A velvetleaf; assay type: in vivo, Abutilon theophrasti; settings: 0 to 10 scale where 0 is no effect and 10 is complete control
Outline: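 Visual injury score, 0 (no effect) to 10 (complete control), vs untreated controls at ~11 d in greenhouse. Pre: soil drench on sandy loam. Post: spray to runoff, 1–2 leaf stage.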

field bindweed = experiment: Test C postemergence field bindweed; assay type: in vivo, Convolvulus arvensis; settings: 0 to 100 scale, 0 no effect, 100 complete control
Description: (§1) Compounds evaluated in this test were formulated in a non-phytotoxic solvent mixture which included a surfactant and applied to plants that were grown for various periods of time before treatment (postemergence application). A mixture of sandy loam soil and greenhouse potting mix in a 60:40 ratio was used for the postemergence test.
(§2) Plantings of these crops and weed species were adjusted to produce plants of appropriate size for the postemergence test. All plant species were grown using normal greenhouse practices. Crop and weed species include arrowleaf sida (Sida rhombifolia), barnyardgrass (Echinochloa crus-galli), cocklebur (Xanthium strumarium), common ragweed (Ambrosia elatior), corn (Zea mays), cotton (Gossypium hirsutum), eastern black nightshade (Solanum ptycanthum), fall panicum (Panicum dichotomiflorum), field bindweed (Convolvulus arvensis), giant foxtail (Setaria faberii), hairy beggarticks (Bidens pilosa), ivyleaf morningglory (Ipomoea hederacea), johnsongrass (Sorghum halepense), ladysthumb smartweed (Polygonum persicaria), lambsquarters (Chenopodium album), large crabgrass (Digitaria sanguinalis), purple nutsedge (Cyperus rotundus), redroot pigweed (Amaranthus retroflexus), soybean (Glycine max), surinam grass (Brachiaria decumbens), velvetleaf (Abutilon theophrasti) and wild poinsettia (Euphorbia heterophylla).
(§3) Treated plants and untreated controls were maintained in a greenhouse for approximately 14, to 21 days, after which all treated plants were compared to untreated controls and visually evaluated. Plant response ratings, summarized in Table C, were based upon a 0 to 100 scale where 0 was no effect and 100 was complete control. A dash response (−) means no test result.

giant foxtail = experiment: Test C postemergence giant foxtail; assay type: in vivo, Setaria faberii; settings: 0 to 100 scale, 0 no effect, 100 complete control
Outline: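 Activity is expressed as percent-style visual control, 0 (no effect) to 100 (complete control), assessed approximately 14 to 21 days after application, relative to untreated plants. Application was postemergence, using a non-phytotoxic solvent formulation with surfactant.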

lambsquarters = experiment: Test C postemergence lambsquarters; assay type: in vivo, Chenopodium album; settings: 0 to 100 scale, 0 no effect, 100 complete control
Description: as §1, §2, §3

annual bluegrass = experiment: Test E annual bluegrass; assay type: in vivo, Poa annua; settings: Postemergence
Outline: (§4)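 For postemergence, sowings are timed so plants reach the 1- to 4-leaf stage at spraying. Test compound is applied in a surfactant-containing solvent mixture that is non-phytotoxic. Response is judged by eye against untreated controls after approximately 21 to 28 days.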

chickweed = experiment: Test E chickweed; assay type: in vivo, Stellaria media; settings: Postemergence
Description: as §1, with “in the 1- to 4-leaf stage” for “grown for various periods of time before treatment”
(§5) Plantings of these crops and weed species were adjusted to produce plants of appropriate size for the postemergence test. All plant species were grown using normal greenhouse practices. Crop and weed species include annual bluegrass (Poa annua), blackgrass (Alopecurus myosuroides), black nightshade (Solanum nigra), chickweed (Stellaria media), common poppy (Papaver rhoeas), deadnettle (Lamium amplexicaule), downy brome (Bromus tectorum), field violet (Viola arvensis), galium (Galium aparine), green foxtail (Setaria viridis), Italian ryegrass (Lolium multiflorum), jointed goatgrass (Aegilops cylindrica), kochia (Kochia scoparia), lambsquarters (Chenopodium album), littleseed canarygrass (Phalaris minor), rape (Brassica napus), redroot pigweed (Amaranthus retroflexus), Russian thistle (Salsola kali), scentless chamomile (Matricaria inodora), spring barley (Hordeum vulgare), sugar beet (Beta vulgaris), sunflower (Helianthus annuus), ivyleaf speedwell (Veronica hederaefolia), spring wheat (Triticum aestivum), winter wheat (Triticum aestivum), wild buckwheat (Polygonum convolvulus), wild mustard (Sinapis arvensis), wild oat (Avena fatua), windgrass (Apera spica-venti) and winter barley (Hordeum vulgare).
(§6) Treated plants and untreated controls were maintained in a greenhouse for approximately 21 to 28 days, after which all treated plants were compared to untreated controls and visually evaluated. […] A dash response (-) means no test result.

galium = experiment: Test E galium; assay type: in vivo, Galium aparine; settings: Postemergence
Description: […] A mixture of sandy loam soil and greenhouse potting mix in a 60:40 ratio was used for the postemergence test.
as §5, §6

green foxtail = experiment: Test E green foxtail; assay type: in vivo, Setaria viridis; settings: Postemergence
Description: as §1, with “in the 1- to 4-leaf stage” for “grown for various periods of time before treatment”
as §5, §6

sunflower = experiment: Test E sunflower; assay type: in vivo, Helianthus annuus; settings: Postemergence
Description: as §5, with “Plantings of these crops and weed species were adjusted to produce plants of appropriate size for the postemergence test.” left out
as §6

wild mustard = experiment: Test E wild mustard; assay type: in vivo, Sinapis arvensis; settings: Postemergence
Outline: as §4

redroot pigweed = experiment: Test E redroot pigweed; assay type: in vivo, Amaranthus retroflexus; settings: Preemergence
windgrass = experiment: Test E windgrass; assay type: in vivo, Apera spica-venti; settings: Preemergence
[1] = Rate 250 g/ha, 0 to 100 scale (0 no effect, 100 complete control)
[2] = Rate 500 g/ha, 0 to 100 scale, 0 no effect, 100 complete control
[3] = Rate 125 g/ha, 0 to 100 scale (0 no effect, 100 complete control)
[4] = Rate 500 g/ha, 0 to 100 scale where 0 is no effect and 100 is complete control
[5] = Rate 62 g/ha, 0 to 100 scale, 0 no effect, 100 complete control

CCOC(=O)Cn1c(=O)on(C(=O)N(c2ccc(F)cc2)C(C)C)c1=O [Compound 128]
Plant response rating, Velvetleaf (velvetleaf; Postemergence, Rate 1000 g/ha): 0 | Plant response rating, Velvetleaf (velvetleaf; Pre-emergence, Rate 2000 g/ha): 0

CCn1c(=O)on(C(=O)N(c2ccc(F)cc2F)C(C)C)c1=O [Compound 116]
Plant response rating Field bindweed (field bindweed; Rate 140 g/ha): 0 | Plant response rating Field bindweed (field bindweed; Rate 280 g/ha): 0 | Plant response rating Field bindweed (field bindweed; Rate 560 g/ha): 50 | Plant response rating Field bindweed (field bindweed; Rate 1120 g/ha): 50 | Plant response rating, Giant foxtail (giant foxtail; Rate 280 g/ha): 60 | Plant response rating, Giant foxtail (giant foxtail; Rate 560 g/ha): 60 | Plant response rating, Giant foxtail (giant foxtail; Rate 1120 g/ha): 85 | Plant response rating, Lambsquarters (lambsquarters; Rate 140 g/ha): 0 | Plant response rating, Lambsquarters (lambsquarters; Rate 560 g/ha): 0 | Plant response rating, Lambsquarters (lambsquarters; Rate 1120 g/ha): 0 | Plant response rating, Annual bluegras (annual bluegrass; Rate 62 g/ha, 0 to 100 scale): 100 | Plant response rating, Annual bluegras (annual bluegrass; Rate 125 g/ha, 0 to 100 scale): 50 | Plant response rating, Annual bluegras (annual bluegrass; [1]): 70 | Plant response rating, Annual bluegras (annual bluegrass; [2]): 75 | Plant response rating, Chickweed (chickweed; Rate 62 g/ha, 0 to 100 scale): 0 | Plant response rating, Chickweed (chickweed; Rate 125 g/ha, 0 to 100 scale): 0 | Plant response rating, Chickweed (chickweed; [1]): 20 | Plant response rating, Chickweed (chickweed; [2]): 50 | Plant response rating, Galium (galium; Rate 62 g/ha, 0 to 100 scale): 30 | Plant response rating, Galium (galium; Rate 125 g/ha, 0 to 100 scale): 40 | Plant response rating, Galium (galium; [1]): 40 | Plant response rating, Galium (galium; [2]): 70 | Plant response rating, Green foxtail (green foxtail; Rate 62 g/ha, 0 to 100 scale): 20 | Plant response rating, Green foxtail (green foxtail; Rate 125 g/ha, 0 to 100 scale): 70 | Plant response rating, Green foxtail (green foxtail; [1]): 75 | Plant response rating, Green foxtail (green foxtail; [2]): 75 | Plant response rating, Sunflower (sunflower; Rate 62 g/ha, 0 to 100 scale): 20 | Plant response rating, Sunflower (sunflower; Rate 125 g/ha, 0 to 100 scale): 0 | Plant response rating, Sunflower (sunflower; [1]): 0 | Plant response rating, Sunflower (sunflower; [2]): 0 | Plant response rating, Wild mustard (wild mustard; Rate 62 g/ha, 0 to 100 scale): 70 | Plant response rating, Wild mustard (wild mustard; Rate 125 g/ha, 0 to 100 scale): 20 | Plant response rating, Wild mustard (wild mustard; [1]): 40 | Plant response rating, Wild mustard (wild mustard; [2]): 40 | Plant response rating, Redroot pigweed (redroot pigweed; [3]): 100 | Plant response rating, Redroot pigweed (redroot pigweed; Rate 250 g/ha, 0 to 100 scale): 100 | Plant response rating, Redroot pigweed (redroot pigweed; [4]): 100 | Plant response rating, Windgrass (windgrass; [3]): 100 | Plant response rating, Windgrass (windgrass; [4]): 100

CCn1c(=O)on(C(=O)N(c2ccc(F)cc2)C(C)C)c1=O [Compound 107]
Plant response rating Field bindweed (field bindweed; Rate 140 g/ha): 0 | Plant response rating Field bindweed (field bindweed; Rate 280 g/ha): 0 | Plant response rating Field bindweed (field bindweed; Rate 560 g/ha): 30 | Plant response rating Field bindweed (field bindweed; Rate 1120 g/ha): 60 | Plant response rating, Giant foxtail (giant foxtail; Rate 280 g/ha): 70 | Plant response rating, Giant foxtail (giant foxtail; Rate 560 g/ha): 95 | Plant response rating, Giant foxtail (giant foxtail; Rate 1120 g/ha): 95 | Plant response rating, Lambsquarters (lambsquarters; Rate 140 g/ha): 0 | Plant response rating, Lambsquarters (lambsquarters; Rate 280 g/ha): 0 | Plant response rating, Lambsquarters (lambsquarters; Rate 560 g/ha): 40 | Plant response rating, Lambsquarters (lambsquarters; Rate 1120 g/ha): 40 | Plant response rating, Annual bluegras (annual bluegrass; Rate 62 g/ha, 0 to 100 scale): 20 | Plant response rating, Annual bluegras (annual bluegrass; Rate 125 g/ha, 0 to 100 scale): 5 | Plant response rating, Annual bluegras (annual bluegrass; [1]): 50 | Plant response rating, Chickweed (chickweed; Rate 62 g/ha, 0 to 100 scale): 10 | Plant response rating, Chickweed (chickweed; Rate 125 g/ha, 0 to 100 scale): 0 | Plant response rating, Chickweed (chickweed; [1]): 0 | Plant response rating, Galium (galium; Rate 62 g/ha, 0 to 100 scale): 5 | Plant response rating, Galium (galium; Rate 125 g/ha, 0 to 100 scale): 30 | Plant response rating, Galium (galium; [1]): 30 | Plant response rating, Green foxtail (green foxtail; Rate 62 g/ha, 0 to 100 scale): 20 | Plant response rating, Green foxtail (green foxtail; Rate 125 g/ha, 0 to 100 scale): 30 | Plant response rating, Green foxtail (green foxtail; [1]): 85 | Plant response rating, Sunflower (sunflower; Rate 62 g/ha, 0 to 100 scale): 10 | Plant response rating, Sunflower (sunflower; Rate 125 g/ha, 0 to 100 scale): 20 | Plant response rating, Sunflower (sunflower; [1]): 30 | Plant response rating, Wild mustard (wild mustard; Rate 62 g/ha, 0 to 100 scale): 5 | Plant response rating, Wild mustard (wild mustard; Rate 125 g/ha, 0 to 100 scale): 90 | Plant response rating, Wild mustard (wild mustard; [1]): 40 | Plant response rating, Redroot pigweed (redroot pigweed; [5]): 100 | Plant response rating, Redroot pigweed (redroot pigweed; [3]): 100 | Plant response rating, Redroot pigweed (redroot pigweed; Rate 250 g/ha, 0 to 100 scale): 100 | Plant response rating, Windgrass (windgrass; [5]): 100 | Plant response rating, Windgrass (windgrass; [3]): 100

Cc1ccccc1Cn1c(=O)on(C(=O)N(c2ccc(Cl)cc2)C(C)C)c1=O [Compound 136]
Plant response rating, Velvetleaf (velvetleaf; Postemergence, Rate 1000 g/ha): 2 | Plant response rating, Velvetleaf (velvetleaf; Pre-emergence, Rate 2000 g/ha): 0

Source: US6737383B1, “Herbicidal oxadiazolidines” (priority 1999, dated 2004)
